# Assays:
# [1] = tested on: Enterococcus faecium 824-05
# [2] = tested on: Staphylococcus aureus UAMS-1
# [3] = tested on: Klebsiella pneumoniae CKP4
# [4] = tested on: Enterococcus faecalis V583
# [5] = tested on: Pseudomonas aeruginosa PA01
# [6] = tested on: 24 hour established A. baumannii biofilms
# P. aeruginosa [7] = tested on: P. aeruginosa
# Excerpt: (§1) Dose response measures of the antimicrobial activity of various concentrations (0 to 8% active agent) were used to define the optimal concentration of each agent alone and in combination.
# [8] = tested on: Enterobacter cloacae Clinical Isolate
# S. aureus [9] = tested on: S. aureus
# Excerpt: as §1
# [10] = tested on: Acinetobacter baumannii 983709
# [11] = tested on: 48 hour established Pseudomonas aeruginosa biofilms
# P. aeruginosa [12] = details: P. aeruginosa wound; 2% agent in PEG (combination 1%+1%), twice a day for three days
# Description: (§2) Treatments were twice a day for a total of three days, at which point the wound bacterial burden was measured.
# S. aureus [13] = details: 2% agent (combination 1% silver sulfadiazine and 1% zinc pyrithione), 3 day
# Description: as §2
# [14] = 0 to 8% active agent (ZnPt ˜0.015 to 0.25%; combination 0.015% to 4%)
substance,measurement,setting,value
zinc pyrithione [ZnPt],minimum inhibitory concentration,[1]; Enterococcus faecium,2 µg/mL
same,MIC,[1]; Enterococcus faecium 824-05,2 µg/mL
same,dose response of antimicrobial activity in PEG ointment,A. baumannii; [14],dose-dependent increase in antimicrobial activity
same,antimicrobial activity in PEG-formulation,A. baumannii; 1% agent or 1% combination (0.5% each),exhibited antimicrobial activity
same,minimum inhibitory concentration,[2]; Staphylococcus aureus,2 µg/mL
same,MIC,[2]; Staphylococcus aureus UAMS-1,2 µg/mL
same,minimum inhibitory concentration,Escherichia coli 8307; Escherichia coli,1 µg/mL
same,MIC,Escherichia coli 8307; Escherichia coli 8307,1 µg/mL
same,minimum inhibitory concentration,[3]; Klebsiella pneumoniae,2 µg/mL
same,MIC,[3]; Klebsiella pneumoniae CKP4,2 µg/mL
same,MIC,[4],2 µg/mL
same,MIC,[5]; Pseudomonas aeruginosa PA01,16 µg/mL
same,minimum inhibitory concentration,[5]; planktonic P. aeruginosa,16 µg/mL
same,antibiofilm activity toward A. baumannii biofilms,[6]; comparison of agents alone and in combination,improved activity
same,reduction in biofilm associated A. baumannii,[6]; highest concentration tested (128 μg ml^−1; combination 64 μg ml^−1 of each agent),3.5 log
same,dose response of antimicrobial activity in PEG ointment,"P. aeruginosa [7]; P. aeruginosa, 0 to 8% active agent (ZnPt ˜0.015 to 0.25%; combination 0.015% to 4%)",dose-dependent increase in antimicrobial activity
same,antimicrobial activity in PEG-formulation,P. aeruginosa [7]; Pseudomonas aeruginosa,exhibited antimicrobial activity
same,minimum inhibitory concentration,[8]; Enterbacter cloacae,4 µg/mL
same,MIC,[8]; Enterobacter cloacae Clinical Isolate,4 µg/mL
same,antimicrobial activity in PEG-formulation,S. aureus [9],exhibited antimicrobial activity
same,dose response of antimicrobial activity in PEG ointment,S. aureus [9]; [14],dose-dependent increase in antimicrobial activity
same,minimum inhibitory concentration,[10]; Acinetobacter baumannii,2 µg/mL
same,MIC,[10]; Acinetobacter baumannii 983709,2 µg/mL
same,reduction in biofilm associated Pseudomonas aeruginosa,"[11]; 50 μM (15.8 μg ml^−1), 48 hour biofilm",1 log
same,antibiofilm activity toward P. aeruginosa,[11]; low concentrations (4 to 64 μg ml^−1),comparable to that of silver sulfadiazine
same,decrease in bacterial burden,P. aeruginosa [12],1.2 log
same,animals completed cleared of S. aureus,S. aureus [13],6 of 10

# From patent publication US11065274B2, “Prevention and treatment for microbial infections” (University of Rochester, priority 2015, dated 2021)
